Results taken from patent US20260257998A1, “ERR MODULATORS” (University of Health Sciences and Pharmacy in St. Louis, priority 2023, published 2026).

What was measured:
ERRα = biological target: T1, ERRα (Homo sapiens, UniProt P11474); experiment: ERRE luciferase reporter assay in HEK293 cells transfected with pcDNA3.1 ERRα; type: cell-based; parameters: key to EC50 (ERRα): ***<1 μM; **1-5 μM; *>5 μM; i.a. (inactive); details: 24 hours treatment, luciferase activity
T1 construct: expressed in transfected cells; host or cells: HEK293
T1 sequence (P11474 1-423): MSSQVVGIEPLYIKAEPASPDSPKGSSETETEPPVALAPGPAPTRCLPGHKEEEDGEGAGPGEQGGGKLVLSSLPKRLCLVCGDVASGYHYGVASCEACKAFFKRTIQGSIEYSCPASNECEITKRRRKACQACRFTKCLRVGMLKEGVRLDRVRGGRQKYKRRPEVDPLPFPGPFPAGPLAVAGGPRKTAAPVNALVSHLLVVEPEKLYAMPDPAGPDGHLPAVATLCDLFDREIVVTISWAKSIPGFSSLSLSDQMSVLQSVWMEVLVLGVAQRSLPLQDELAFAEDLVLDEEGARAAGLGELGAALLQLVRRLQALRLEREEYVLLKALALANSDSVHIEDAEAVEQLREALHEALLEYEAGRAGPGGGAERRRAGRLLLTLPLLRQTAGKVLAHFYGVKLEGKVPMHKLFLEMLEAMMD

ERRγ = biological target: T2, ERRγ (Homo sapiens, UniProt P62508); experiment: ERRE luciferase reporter assay in HEK293 cells transfected with pcDNA3.1 ERRγ; type: cell-based; parameters: key to EC50 (ERRγ): ***<1 μM; **1-5 μM; *>5 μM; i.a. (inactive); details: 24 hours treatment, luciferase activity
T2 construct: expressed in transfected cells; host or cells: HEK293
T2 sequence (P62508 1-458): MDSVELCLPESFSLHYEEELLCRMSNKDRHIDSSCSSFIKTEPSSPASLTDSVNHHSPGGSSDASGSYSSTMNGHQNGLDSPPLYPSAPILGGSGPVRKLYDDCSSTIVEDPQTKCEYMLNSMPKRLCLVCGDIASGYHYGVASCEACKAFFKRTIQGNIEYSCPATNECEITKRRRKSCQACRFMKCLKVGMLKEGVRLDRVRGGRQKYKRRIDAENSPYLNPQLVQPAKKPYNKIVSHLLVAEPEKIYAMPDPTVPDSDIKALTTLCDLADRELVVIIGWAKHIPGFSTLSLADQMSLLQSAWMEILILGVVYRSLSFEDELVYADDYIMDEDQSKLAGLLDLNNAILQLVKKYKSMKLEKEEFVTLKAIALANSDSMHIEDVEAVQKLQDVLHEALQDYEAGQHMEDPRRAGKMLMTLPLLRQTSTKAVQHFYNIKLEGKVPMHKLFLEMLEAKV

Row | Structure (SMILES) | EC50 (ERRα) (ERRα) | EC50 (ERRγ) (ERRγ) | EC50 (ERRα) [µM] | EC50 (ERRγ) [µM]
1 | FC(F)(F)c1ccc(C2=NNC(c3ccc(Br)cc3)C2)cc1 (centres unmarked) [Entry 114, 5-(4-bromophenyl)-3-(4-(trifluoromethyl)phenyl)-4,5-dihydro-1H-pyrazole] | i.a. | i.a. |  | 
2 | Oc1ccc(C2CC(c3ccc(C(F)(F)F)cc3)=NN2)cc1 (centres unmarked) [Entry 73, 4-(3-(4-(trifluoromethyl)phenyl)-4,5-dihydro-1H-pyrazol-5-yl)phenol] |  |  | 1 to 5 | 1 to 5
3 | COc1ccccc1C1=NNC(c2cccc(Cl)c2O)C1 (centres unmarked) [Entry 60, 2-chloro-6-(3-(2-methoxyphenyl)-4,5-dihydro-1H-pyrazol-5-yl)phenol] | i.a. | i.a. |  | 
4 | Oc1c(F)cccc1C1CC(c2ccc(Br)cc2)=NN1 (centres unmarked) [Entry 32, 2-(3-(4-Bromophenyl)-4,5-dihydro-1H-pyrazol-5-yl)-6-fluorophenol] | i.a. | i.a. |  | 
